From patent US12673954B2 (BRISTOL-MYERS SQUIBB COMPANY, priority 2021, dated 2026)
Read-outs that look alike come from different tables or passages of the source.

Tests used:
[1] = system: IRF pathway, THP1-Dual™ cells; assay: STING reporter assay in THP1-Dual cells, IRF pathway (Lucia luciferase, QUANTI-Luc); type: cell-based, human; conditions: THP1-Dual cells, 10% human plasma, 20 hours, Lucia luciferase, 100% activation = 100 μM cGAMP, read-out: IRF (EC50 μM)
Method in brief: (§1)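 Activation normalised between DMSO-only baseline and 100 μM cGAMP maximum, after 20 h compound exposure (starting at 100 μM final) at 37° C, 5% CO2. Supernatant SEAP (QUANTI-Blue, OD620) reports NF-κB; secreted luciferase (QUANTI-Luc, RLU at 5 min) reports IRF.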

[2] = system: NF-κB pathway, THP1-Dual™ cells; assay: STING reporter assay in THP1-Dual cells, NF-κB pathway (SEAP, QUANTI-Blue); type: cell-based, human; conditions: THP1-Dual cells, 10% human plasma, 20 hours, SEAP, 100% activation = 100 μM cGAMP, read-out: NFkB (EC50 μM)
Method in brief: as §1

SMILES | EC50 ([1]; Homo sapiens, THP1-Dual, 20 h) [µM] | EC50 ([2]; Homo sapiens, THP1-Dual, 20 h) [µM] | EC50 [1] [µM] | EC50 [2] [µM]
COC(OC(=O)c1cc(F)cc2cc(CNC(=O)c3cnn4cccnc34)oc12)C(F)(F)F (single isomer, unassigned) [EXAMPLE 319, 2,2,2-Trifluoro-1-methoxyethyl 5-fluoro-2-((pyrazolo[1,5-a]pyrimidine-3-carboxamido)methyl)benzofuran-7-carboxylate] | 2.4 | 2.5 |  | 
CC(OC(=O)c1cc(C(F)(F)F)cc2cc(CNC(=O)c3cnn4cccnc34)oc12)C(F)(F)F (single isomer, unassigned) [EXAMPLE 349, 1,1,1-Trifluoropropan-2-yl 2-((pyrazolo[1,5-a]pyrimidine-3-carboxamido)methyl)-5-(trifluoromethyl)benzofuran-7-carboxylate] |  |  | 3.8 | 3.5
COC(=O)c1cc(Cl)cc2cc(CNC(=O)c3cncc(Cl)n3)oc12 [Example 61, Methyl 5-chloro-2-((6-chloropyrazine-2-carboxamido)methyl) benzofuran-7-carboxylate] |  |  | 21 | 21
CC(C)OC(=O)c1cc(Cl)cc2cc(CNC(=O)c3cnn4cccnc34)oc12 [EXAMPLE 240, Isopropyl 5-chloro-2-((pyrazolo[1,5-a]pyrimidine-3-carboxamido)methyl)benzofuran-7-carboxylate] | 0.78 | 0.61 |  | 
COC(=O)c1cc(C)cc2cc(CN3CCc4ccncc4C3=O)oc12 [Example 87, Methyl 5-methyl-2-((1-oxo-3,4-dihydro-2,7-naphthyridin-2(1H)-yl)methyl)benzofuran-7-carboxylate] | 5.5 | 5.8 |  | 
O=C(OCC(F)(F)F)c1ccc(F)c2cc(CNC(=O)c3cnn4cccnc34)oc12 [EXAMPLE 355, 2,2,2-Trifluoroethyl 4-fluoro-2-((pyrazolo[1,5-a]pyrimidine-3-carboxamido)methyl)benzofuran-7-carboxylate] | 0.96 | 1.3 |  | 
CCSC(=O)c1cc(F)cc2cc(CNC(=O)c3cnn4cccnc34)oc12 [EXAMPLE 387, S-Ethyl 5-fluoro-2-((pyrazolo[1,5-a]pyrimidine-3-carboxamido)methyl)benzofuran-7-carbothioate] | 1.9 | 2.1 |  | 
O=C(Cc1cc(Br)cc2cc(CNC(=O)c3cnn4cccnc34)oc12)OCC(F)(F)F [EXAMPLE 270, 2,2,2-Trifluoroethyl 2-(5-bromo-2-((pyrazolo[1,5-a]pyrimidine-3-carboxamido)methyl)benzofuran-7-yl)acetate] | 30 | 36 |  | 
COc1cc(C(=O)OCC(F)(F)F)c2oc(CNC(=O)c3cnn4cccnc34)cc2c1 [EXAMPLE 280, 2,2,2-Trifluoroethyl 5-methoxy-2-((pyrazolo[1,5-a]pyrimidine-3-carboxamido)methyl)benzofuran-7-carboxylate] | 2.5 | 2.4 |  | 
CCSC(=O)c1cc(C)cc2cc(CNC(=O)c3cnn4cccnc34)oc12 [EXAMPLE 390, S-Ethyl 5-methyl-2-((pyrazolo[1,5-a]pyrimidine-3-carboxamido)methyl)benzofuran-7-carbothioate] | 0.53 | 0.29 |  | 
COC(=O)c1c(F)c(F)cc2cc(CNC(=O)c3cnn4cccnc34)oc12 [EXAMPLE 126, Methyl 5,6-difluoro-2-((pyrazolo[1,5-a]pyrimidine-3-carboxamido)methyl)benzofuran-7-carboxylate] | 1.4 | 1.6 |  | 
O=C(OCCN1CCOCC1)c1cc(Cl)cc2cc(CNC(=O)c3cnn4cccnc34)oc12 [EXAMPLE 255, 2-Morpholinoethyl 5-chloro-2-((pyrazolo[1,5-a]pyrimidine-3-carboxamido)methyl)benzofuran-7-carboxylate] | 13 | 19 |  | 
CC(=O)OCOC(=O)c1cc(Cl)cc2cc(CNC(=O)c3cnn4cccnc34)oc12 [EXAMPLE 259, Acetoxymethyl 5-chloro-2-((13yrazole[1,5-a]pyrimidine-3-carboxamido)methyl)benzofuran-7-carboxylate] | 2.3 | 2.2 |  | 
COC(=O)c1cccc2cc(CN3Cc4ccnc(F)c4C3=O)oc12 [EXAMPLE 4, Methyl 2-((4-fluoro-3-oxo-1,3-dihydro-2H-pyrrolo[3,4-c]pyridin-2-yl)methyl)benzofuran-7-carboxylate] | 13 | 14 |  | 
CC(OC(=O)c1ccc(F)c2cc(CNC(=O)c3cnn4cccnc34)oc12)C(F)(F)F (single isomer, unassigned) [EXAMPLE 309, 1,1,1-Trifluoropropan-2-yl 4-fluoro-2-((pyrazolo[1,5-a]pyrimidine-3-carboxamido)methyl)benzofuran-7-carboxylate] |  |  | 6.1 | 7.2
O=C(OCC(F)(F)F)c1c(F)ccc2cc(CNC(=O)c3cnn4cccnc34)oc12 [EXAMPLE 286, 2,2,2-Trifluoroethyl 6-fluoro-2-((pyrazolo[1,5-a]pyrimidine-3-carboxamido)methyl)benzofuran-7-carboxylate] | 2.7 | 2.5 |  | 

SMILES | EC50 ([1]; Homo sapiens, THP1-Dual, 20 h) [µM] | EC50 ([2]; Homo sapiens, THP1-Dual, 20 h) [µM] | EC50 [1] [µM] | EC50 [2] [µM]
COCCOCCOC(=O)c1cc(Cl)cc2cc(CNC(=O)c3cnn4cccnc34)oc12 [EXAMPLE 258, 2-(2-Methoxyethoxy)ethyl 5-chloro-2-((pyrazolo[1,5-a]pyrimidine-3-carboxamido)methyl)benzofuran-7-carboxylate] | 3 | 3.5 |  | 
O=C(OCC(F)(F)F)c1cc(Cl)cc2cc(Cn3ccc4ccncc4c3=O)oc12 [EXAMPLE 372, 2,2,2-Trifluoroethyl 5-chloro-2-((1-oxo-2,7-naphthyridin-2(1H)-yl)methyl)benzofuran-7-carboxylate] | 3.7 | 4.6 |  | 
COC(=O)c1cc(Cl)cc2cc(CNC(=O)c3cncc(Br)n3)oc12 [Example 62, Methyl 2-((6-bromopyrazine-2-carboxamido)methyl)-5-chlorobenzofuran-7-carboxylate] | 42 | 46 |  | 
COC(=O)c1cccc2cc(CNC(=O)c3cnn4cc(Cl)cnc34)oc12 [EXAMPLE 13, Methyl 2-((6-chloropyrazolo[1,5-a]pyrimidine-3-carboxamido)methyl) benzofuran-7-carboxylate] |  |  | 8.7 | 11
CCOC(=O)OC(C)OC(=O)c1cc(Cl)cc2cc(CNC(=O)c3cnn4cccnc34)oc12 (racemic) [EXAMPLE 261, 1-((Ethoxycarbonyl)oxy)ethyl 5-chloro-2-((pyrazolo[1,5-a]pyrimidine-3-carboxamido)methyl)benzofuran-7-carboxylate] | 0.95 | 0.82 |  | 
COC(=O)c1cc(F)cc2c(Cl)c(CNC(=O)c3cnn4cccnc34)oc12 [EXAMPLE 110, Methyl 3-chloro-5-fluoro-2-((pyrazolo[1,5-a]pyrimidine-3-carboxamido)methyl)benzofuran-7-carboxylate] | 0.22 | 0.27 |  | 
O=C(OCC(F)(F)F)c1cccc2cc(CNC(=O)c3cnn4cccnc34)oc12 [EXAMPLE 217, 2,2,2-Trifluoroethyl 2-((pyrazolo[1,5-a]pyrimidine-3-carboxamido)methyl)benzofuran-7-carboxylate] | 1.3 | 1.6 |  | 
CSC(=O)c1cc(F)cc2cc(CNC(=O)c3cnccn3)oc12 [EXAMPLE 384, S-Methyl 5-fluoro-2-((pyrazine-2-carboxamido)methyl)benzofuran-7-carbothioate] | 3.2 | 3 |  | 
COC(=O)c1cccc2cc(CNC(=O)c3cnccn3)oc12 [EXAMPLE 8, Methyl 2-((pyrazine-2-carboxamido)methyl)benzofuran-7-carboxylate] | 21 | 18 |  | 
CC(C)OC(=O)c1cccc2cc(CN3CCc4ccncc4C3=O)oc12 [EXAMPLE 206, Isopropyl 2-((1-oxo-3,4-dihydro-2,7-naphthyridin-2(1H)-yl)methyl)benzofuran-7-carboxylate] | 13 | 12 |  | 
COC(=O)c1cc(F)cc2cc(CNC(=O)c3cnn4cccnc34)oc12 [EXAMPLE 35, Methyl 5-fluoro-2-((pyrazolo[1,5-a]pyrimidine-3 carboxamido)methyl)benzofuran-7-carboxylate] | 0.53 | 0.77 |  | 
COC(=O)c1cccc2c(Cl)c(CN3CCc4ccncc4C3=O)oc12 [EXAMPLE 21, Methyl 3-chloro-2-((1-oxo-3,4-dihydro-2,7-naphthyridin-2(1H)-yl)methyl)benzofuran-7-carboxylate] | 2.9 | 3.1 |  | 
COC(=O)c1cc(C)cc2cc(CNC(=O)c3cnn4cccnc34)oc12 [Example 89, Methyl 5-methyl-2-((pyrazolo[1,5-a]pyrimidine-3-carboxamido)methyl)benzofuran-7-carboxylate] | 0.21 | 0.19 |  | 
COC[C@@H](C)OC(=O)c1cc(Cl)cc2cc(CNC(=O)c3cnn4cccnc34)oc12 [EXAMPLE 242, (R)-1-Methoxypropan-2-yl 5-chloro-2-((pyrazolo[1,5-a]pyrimidine-3-carboxamido)methyl)benzofuran-7-carboxylate] | 2.4 | 2.1 |  | 
O=C(O)c1cc(F)cc2c(Cl)c(CNC(=O)c3cnn4cccnc34)oc12 [EXAMPLE 172, 3-chloro-5-fluoro-2-((pyrazolo[1,5-a]pyrimidine-3-carboxamido)methyl)benzofuran-7-carboxylic acid] | 62 | 74 |  | 
COC(=O)c1cccc2cc(CNC(=O)c3cncnc3OC)oc12 [EXAMPLE 16, Methyl 2-((4-methoxypyrimidine-5-carboxamido)methyl)benzofuran-7-carboxylate] | 6.8 | 9.3 |  | 
